Reference: ChEMBL document CHEMBL3870361, “Discovery of Novel Seven-Membered Prostacyclin Analogues as Potent and Selective Prostaglandin FP and EP3 Dual Agonists” (ACS Med Chem Lett, 2017)

Columns and labels:
[1] = molecular target: T1, Prostaglandin E2 receptor EP3 subtype (Homo sapiens, UniProt P43115); experiment: Agonist activity at human EP3 receptor expressed in CHO cells assessed as increase in intracellular calcium level by Fura 2-AM dye based fluorescence assay; type: functional, cell-based
T1 sequence (P43115 whole entry): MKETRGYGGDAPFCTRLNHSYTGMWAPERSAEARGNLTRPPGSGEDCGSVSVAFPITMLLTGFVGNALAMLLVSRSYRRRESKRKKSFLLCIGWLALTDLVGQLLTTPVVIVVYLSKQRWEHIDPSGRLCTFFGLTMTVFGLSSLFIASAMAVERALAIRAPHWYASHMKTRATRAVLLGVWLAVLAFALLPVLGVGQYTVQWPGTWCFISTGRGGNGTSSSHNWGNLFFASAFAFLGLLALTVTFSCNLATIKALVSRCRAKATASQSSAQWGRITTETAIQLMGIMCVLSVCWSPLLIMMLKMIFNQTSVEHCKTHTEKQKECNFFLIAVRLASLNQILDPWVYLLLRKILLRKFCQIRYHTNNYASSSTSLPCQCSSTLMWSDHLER

[2] = molecular target: Prostaglandin F2-alpha receptor (Homo sapiens, UniProt P43088); experiment: Agonist activity at human prostaglandin FP receptor expressed in CHO cells assessed as increase in intracellular calcium level by Fura 2-AM dye based fluorescence assay; type: functional, cell-based
Prostacyclin receptor = Prostacyclin receptor (Homo sapiens, UniProt P43119); experiment: Agonist activity at human IP receptor expressed in CHO cells assessed as increase in intracellular cAMP level by HTRF method; type: cell-based
[3] = molecular target: Prostaglandin E2 receptor EP4 subtype (Homo sapiens, UniProt P35408); experiment: Agonist activity at EP4 receptor (unknown origin)
[4] = molecular target: Prostaglandin E2 receptor EP2 subtype (Homo sapiens, UniProt P43116); experiment: Agonist activity at EP2 receptor (unknown origin)
Prostaglandin E2 receptor EP2 subtype, sequence (P43116 whole entry): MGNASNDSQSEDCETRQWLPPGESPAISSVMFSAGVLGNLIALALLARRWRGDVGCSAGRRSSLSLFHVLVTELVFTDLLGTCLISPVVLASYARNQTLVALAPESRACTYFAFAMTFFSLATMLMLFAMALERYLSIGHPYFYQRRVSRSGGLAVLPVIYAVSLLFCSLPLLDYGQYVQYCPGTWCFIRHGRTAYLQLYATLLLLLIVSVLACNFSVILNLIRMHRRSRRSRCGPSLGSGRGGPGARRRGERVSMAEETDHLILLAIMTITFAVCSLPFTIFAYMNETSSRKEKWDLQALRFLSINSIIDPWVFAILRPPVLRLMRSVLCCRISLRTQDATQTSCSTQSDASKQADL

Prostaglandin F2-alpha receptor, sequence (P43088 whole entry): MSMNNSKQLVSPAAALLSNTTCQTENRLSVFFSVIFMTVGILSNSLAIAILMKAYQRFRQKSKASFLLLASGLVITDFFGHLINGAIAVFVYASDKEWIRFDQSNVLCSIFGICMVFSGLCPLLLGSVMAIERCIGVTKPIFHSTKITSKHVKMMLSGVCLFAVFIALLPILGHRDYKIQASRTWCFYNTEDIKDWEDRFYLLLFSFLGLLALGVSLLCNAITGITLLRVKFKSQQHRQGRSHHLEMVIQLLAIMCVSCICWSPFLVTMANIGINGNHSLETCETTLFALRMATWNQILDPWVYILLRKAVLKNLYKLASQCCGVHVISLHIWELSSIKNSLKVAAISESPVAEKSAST
Prostacyclin receptor, sequence (P43119 whole entry): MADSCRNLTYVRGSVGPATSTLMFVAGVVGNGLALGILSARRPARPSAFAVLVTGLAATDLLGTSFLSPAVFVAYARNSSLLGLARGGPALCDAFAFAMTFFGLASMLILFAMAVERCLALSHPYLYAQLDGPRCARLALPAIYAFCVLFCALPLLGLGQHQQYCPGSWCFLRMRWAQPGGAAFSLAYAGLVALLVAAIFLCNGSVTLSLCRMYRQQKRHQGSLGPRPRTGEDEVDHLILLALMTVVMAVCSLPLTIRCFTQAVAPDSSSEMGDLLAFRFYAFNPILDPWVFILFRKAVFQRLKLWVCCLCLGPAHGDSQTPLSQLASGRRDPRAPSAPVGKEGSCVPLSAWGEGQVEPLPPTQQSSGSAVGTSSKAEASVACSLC
Prostaglandin E2 receptor EP4 subtype, sequence (P35408 whole entry): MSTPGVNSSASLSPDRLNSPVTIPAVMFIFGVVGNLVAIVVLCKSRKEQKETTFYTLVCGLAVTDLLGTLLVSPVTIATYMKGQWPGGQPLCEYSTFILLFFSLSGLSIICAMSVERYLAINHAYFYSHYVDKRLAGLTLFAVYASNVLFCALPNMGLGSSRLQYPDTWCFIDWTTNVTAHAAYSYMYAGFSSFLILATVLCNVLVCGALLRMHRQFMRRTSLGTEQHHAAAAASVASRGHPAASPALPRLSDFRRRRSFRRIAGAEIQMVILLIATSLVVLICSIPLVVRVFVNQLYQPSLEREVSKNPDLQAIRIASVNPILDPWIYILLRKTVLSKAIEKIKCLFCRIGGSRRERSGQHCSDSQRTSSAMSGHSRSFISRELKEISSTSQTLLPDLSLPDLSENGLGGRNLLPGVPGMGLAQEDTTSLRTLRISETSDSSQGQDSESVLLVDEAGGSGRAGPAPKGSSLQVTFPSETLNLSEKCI

Row | Compound | EC50 [1] [nM] | EC50 [2] [nM] | EC50 (Prostacyclin receptor) [nM] | EC50 [3] [nM] | EC50 [4] [nM]
1 | O=C(O)CCC1=CC[C@@H]2[C@@H](/C=C/[C@@H](O)COc3ccccc3)[C@H](O)C[C@@H]2OC1 | 2700 | 530 | > 10000 | – | –
2 | O=C(O)CCCC1=CC[C@@H]2[C@@H](/C=C/[C@@H](O)COc3ccccc3)[C@H](O)C[C@@H]2OC1 | 4700 | 640 | > 10000 | – | –
3 | O=C(O)CCCC[C@H]1CC[C@@H]2[C@@H](/C=C/[C@@H](O)COc3ccccc3)[C@H](O)C[C@@H]2OC1 | 540 | 43 | > 10000 | – | –
4 | O=C(O)CC[C@H]1CC[C@@H]2[C@@H](/C=C/[C@@H](O)COc3ccccc3)[C@H](O)C[C@@H]2OC1 | 4800 | 110 | > 10000 | – | –
5 | O=C(O)CCCCCC1=CC[C@@H]2[C@@H](/C=C/[C@@H](O)COc3ccccc3)[C@H](O)C[C@@H]2OC1 | 6400 | 880 | > 10000 | – | –
6 | O=C(O)CCCC[C@@H]1CC[C@@H]2[C@@H](/C=C/[C@@H](O)COc3ccccc3)[C@H](O)C[C@@H]2OC1 | 130 | 110 | > 10000 | – | –
7 | O=C(O)CC[C@@H]1CC[C@@H]2[C@@H](/C=C/[C@@H](O)COc3ccccc3)[C@H](O)C[C@@H]2OC1 | 870 | 1000 | > 10000 | – | –
8 | O=C(O)CCC/C=C\C[C@@H]1[C@@H](/C=C/[C@@H](O)COc2cccc(C(F)(F)F)c2)[C@H](O)C[C@@H]1O [FLUPROSTENOL] | 3400 | 3.6 | > 10000 | – | –

Now those with a lower EC50 [1], led by results:

Row | EC50 [1] [nM] | EC50 [2] [nM] | EC50 (Prostacyclin receptor) [nM] | EC50 [3] [nM] | EC50 [4] [nM] | Compound
9 | 3.6 | 7.1 | – | – | – | O=C(O)CCC[C@H]1CC[C@@H]2[C@@H](/C=C/[C@@H](O)COc3ccccc3)[C@H](O)C[C@@H]2O1
10 | 13 | 73 | > 10000 | – | – | O=C(O)CCCCC1=CC[C@@H]2[C@@H](/C=C/[C@@H](O)COc3ccccc3)[C@H](O)C[C@@H]2OC1
11 | 18 | 22 | > 10000 | – | – | O=C(O)CC[C@H]1CCC[C@@H]2[C@@H](/C=C/[C@@H](O)COc3ccccc3)[C@H](O)C[C@@H]2O1
12 | 2.3 | 280 | > 10000 | – | – | O=C(O)CCC[C@@H]1CC[C@@H]2[C@@H](/C=C/[C@@H](O)COc3ccccc3)[C@H](O)C[C@@H]2OC1
13 | 27 | 3.8 | 2000 | – | – | O=C(O)CC[C@@H]1CCC[C@@H]2[C@@H](/C=C/[C@@H](O)COc3ccccc3)[C@H](O)C[C@@H]2O1
14 | 4 | 28 | > 10000 | > 10000 | > 10000 | O=C(O)CCC[C@H]1CC[C@@H]2[C@@H](/C=C/[C@@H](O)COc3ccccc3)[C@H](O)C[C@@H]2OC1
15 | 0.89 | 16 | – | – | – | O=C(O)CCC/C=C\C[C@H]1C(=O)C[C@@H](O)[C@@H]1/C=C/[C@@H](O)COc1ccccc1
16 | 4.1 | 4.1 | 26 | – | – | O=C(O)CCC[C@@H]1CC[C@@H]2[C@@H](/C=C/[C@@H](O)COc3ccccc3)[C@H](O)C[C@@H]2O1
